In patent publication US20190048342A1, “CROSS-REGULATION OF TYPE I INTERFERON SIGNALING PATHWAYS” (THE METHODIST HOSPITAL SYSTEM, priority 2016, published 2019):

Assays:
P. yoelii YM [1] = assay: Serum cytokine levels (ELISA) in mice after P. yoelii YM infection; type: in vivo, mouse
Procedure: (§1) The parasite Plasmodium yoelii YM, N67C and N67 have been previously described (Li, J. et al. Proc Natl Acad Sci USA 108:E374-382 (2011)). For plasmodium infection, 0.2 (low) or 2×10^6 iRBCs (otherwise, indicated specifically in the figure legend) suspended in 200 μl PBS from the donor mice were intraperitoneally injected into experimental mice. A higher parasite dose (1×10^7 iRBCs) was used in some experiments. Parasitemias were monitored daily by examination of Giemsa-stained thin tail blood smears. Female mice C57BL/6 (WT), Mavs^−/−, Mda5^−/−, Myd88^−/−, Sting^−/−, Trif^−/−, BDCA2-DTR, Tlr2^−/−, Tlr3^−/−, and Tlr4^−/− mice were purchased from The Jackson Laboratory. Tlr9^−/− mice, Tlr7^−/−, Rig-I^−/− mice, Irf3^−/−:Irf7^−/− mice, and cGAS^−/− mice were obtained. All mouse-related procedures were performed according to experimental protocols approved by the Animal Care and Welfare Committee at Houston Methodist Research Institute and in accordance with NIH-approved animal study protocol LMVR-11E.
(§2) To deplete pDCs, pDC-depleting functional-grade mAb (anti-mPDCA-1 IgG, clone JF05-1C2.4.1) and the corresponding isotype control IgG, which served as control, were purchased from Miltenyi Biotec (Auburn, Calif.). Two intraperitoneal injections of antibody (250 μg/mouse) per mouse were administered 12 h prior and after YM infection.
Mouse splenocytes were prepared from spleens cut into small fragments and digested with collagenase D (1 mg/ml, Sigma) and DNAse I (20 μg/ml, Sigma) in RPMI-1640 medium for 30 min. […] Cells were analyzed using the BD FACS Aria II. […]
In Vivo Ready siRNAs were mixed with Invivofectamine 3.0 liposomes (Invitrogen) following the manufacturer's instructions and injected intravenously in a volume of 100 μl at a dose of 5 mg/kg. […]
The parasite Plasmodium yoelii YM and Plasmodium yoelii N67C have been previously described (Wu, J. et al. Proc Natl Acad Sci USA 111:E511-520 (2014); Li, J. et al. Proc Natl Acad Sci USA 108:E374-382 (2011)). […] Parasitemias were monitored daily by examination of Giemsa-stained thin tail blood smears. […]

P. yoelii YM [2] = assay: Daily parasitemia and mortality of mice after P. yoelii YM infection; type: in vivo, mouse
Procedure: as §1, §2
In Vivo Ready siRNAs were mixed with Invivofectamine 3.0 liposomes (Invitrogen) following the manufacturer's instructions and injected intravenously in a volume of 100 μl at a dose of 5 mg/kg. Mice were infected with P. yoelii YM (0.5×10^6 iRBCs) 48 h after siRNA treatment.
Deficient (Mda5^−/−, Mavs^−/−, and Sting^−/−) mice were crossed with BDCA2-DTR transgenic mice and treated with diphtheria toxin (DT, Sigma-Aldrich) intraperitoneally (i.p.) at a dose of 100-120 ng/mouse. pDCs were depleted by DT injection at 1 day before and 1, 3, and 5 days after P. yoelii YM infection.
The parasite Plasmodium yoelii YM and Plasmodium yoelii N67C have been previously described (Wu, J. et al. Proc Natl Acad Sci USA 111:E511-520 (2014); Li, J. et al. Proc Natl Acad Sci USA 108:E374-382 (2011)). For plasmodium infection, 0.2 (low) or 2×10^6 iRBCs (otherwise, indicated specifically in the figure legend) suspended in 200 μl PBS from the donor mice were intraperitoneally injected into experimental mice. Parasitemias were monitored daily by examination of Giemsa-stained thin tail blood smears. Female mice C57BL/6 (WT), Mavs^−/−, Mda5^−/−, Sting^−/−, BDCA2-DTR, zDC-DTR, Ifnar^−/−, and Rag2^−/− mice were purchased from The Jackson Laboratory. All mouse-related procedures were performed according to experimental protocols approved by the Animal Care and Welfare Committee at Houston Methodist Research Institute and in accordance with NIH-approved animal study protocol LMVR-11E.
To block type I IFN receptor, anti-mouse interferon α/β receptor antibodies (Leinco Technologies), in the amount of 500 μg in PBS at day 0, 2, 4, and 250 μg at day 6 after infection (or indicated specifically in the figure legend), were intraperitoneally injected into WT and deficient mice. Mouse IgG antibody was used as control, and parasitemias were monitored by daily Giemsa-stained blood smears. To test the role of type I IFN cytokines, C57BL/6 mice were first infected with P. yoelii YM, and then intravenously injected with 800 U/g mouse recombinant IFN-α and IFN-β, recombinant IL-6, or recombinant IFN-γ at the indicated time points. Bovine serum albumin (BSA, 0.1%) in PBS served as a control, and parasitemias were monitored by daily Giemsa-stained blood smears. To deplete pDCs, pDC-depleting functional-grade mAb (anti-mPDCA-1 IgG, clone JF05-1C2.4.1) was purchased from Miltenyi Biotec (Auburn, Calif.), and the corresponding isotype control IgG served as control. Two intraperitoneally injections of antibody (250 μg/mouse) per mouse were administered 12 h prior and after plasmodium YM infection or indicated specifically in the figure legend. […]

RNA polymerase III = assay: IFN-β mRNA in RAW264.7 cells after P. yoelii YM gDNA stimulation, with RNA polymerase III knockdown or inhibition; type: cell-based; conditions: siRNA 48 h or ML60218 pretreatment 24 h, then P. yoelii YM gDNA stimulation 6 h
Source text: FIGS. 10A to 10G show type I IFN gene expression after P. yoelii YM gDNA or RNA stimulation and WT mice serum cytokine level after P. yoelii YM infection. […] Data are plotted as the mean±s.d. and are representative of three independent experiments. *P<0.05, **P<0.01, ***P<0.001 vs. corresponding control. ND, not detected; NS, not significant.
To understand the molecular mechanisms by which mice deficient in the cGAS, Sting, Mda5, or Mavs gene were resistant to P. yoelii YM infection, experiments were conducted to determine whether cGAS and MDA5 function as DNA/RNA sensors for detecting P. yoelii YM gDNAs or RNAs (FIG. 2a). Both purified P. yoelii YM gDNA and RNA could induce IFN-β mRNA expression in RAW264.7 cells (FIG. 2b). The ability of P. yoelii YM gDNA to induce type I IFN response was completely abolished upon DNase, but not RNase, treatment (FIG. 10a). Similarly, the stimulating activity of parasite RNA was abolished after treatment with RNase, but not DNase (FIG. 10a), which is in agreement with other studies showing that malaria RNA can be detected by MDA5 sensor (Liehl, P. et al. Nat Med 20:47-53 (2014); Wu, J. et al. Proc Natl Acad Sci USA 111:E511-520 (2014)). […]

P. berghei ANKA = conditions: previous studies; cited from earlier work
[3] = Sting-/- mice, macrophage depletion at one day post infection, vs liposome control or treatment two days before
[4] = Mavs-/-:zDC-DTR mice, DT after 24 h of infection, vs untreated or DT four days before
[5] = WT mice, recombinant cytokine i.v. at 18 h post YM infection

Molecule: O=P(O)(O)C(Cl)(Cl)P(=O)(O)O [clodronate]
- serum levels of IFN-α and IFN-β (P. yoelii YM [1]; Sting-/- mice, macrophage depletion two days before or one day after YM infection): did not affect
- host mortality (P. yoelii YM [2]; [3]): markedly increased parasitemia and host mortality
- parasitemia (P. yoelii YM [2]; [3]): markedly increased parasitemia and host mortality

Molecule: Cc1c(-c2cc(NS(=O)(=O)c3ccccc3Cl)n(C)n2)sc2ccc(Cl)cc12 [ML60218]
- IFN-β mRNA expression (RNA polymerase III): markedly inhibited

Molecule: diphtheria toxin [DT]
- serum IFN-α and IFN-β (P. yoelii YM [1]; Mavs-/-:BDCA2-DTR mice treated with DT vs Mavs-/- mice treated with DT, 24 h after infection): markedly reduced
- serum levels of IFN-α and IFN-β (P. yoelii YM [1]; Mavs-/-:zDC-DTR chimeric mice, DT four days before or one day post infection): no change
- sensitivity to P. yoelii YM infection based on parasitemia and survival (P. yoelii YM [2]; DT-treated Mavs-/-:BDCA2-DTR mice vs DT-treated Mavs-/- mice): sensitive to P. yoelii YM infection
- parasitemia (P. yoelii YM [2]; [4]): increased parasitemia
- time of death (P. yoelii YM [2]; [4]): died sooner

Molecule: murine IFN-β: murine IFN-β of previous studies
- protection of mice from ANKA infection (P. berghei ANKA): protect

B1: IL-6: recombinant IL-6 injected intravenously (protein, UniProt P08505 25-211, looked up)
Interleukin-6: FPTSQVRRGDFTEDTTPNRPVYTTSQVGGLITHVLWEIVEMRKELCNGNSDCMNNDDALAENNLKLPEIQRNDGCYQTGYNQEICLLKISSGLLEYHSYLEYMKNNLKDNKKDKARVLQRDTETLIHIFNQEVKDLHKIVLPTPISNALLTDKLESQKEWLRTKTIQFILKSLEEFLKVTLRSTRQT
- host mortality (P. yoelii YM [2]; [5]): failed to do so
- parasitemia (P. yoelii YM [2]; [5]): failed to do so

B2: IFN-γ: recombinant IFN-γ injected intravenously (protein, UniProt P01580 23-155, looked up)
Interferon gamma: HGTVIESLESLNNYFNSSGIDVEEKSLFLDIWRNWQKDGDMKILQSQIISFYLRLFEVLKDNQAISNNISVIESHLITTFFSNSKAKKDAFMSIAKFEVNNPQVQRQAFNELIRVVHQLLPESSLRKRKRSRC
- host mortality (P. yoelii YM [2]; [5]): failed to do so
- parasitemia (P. yoelii YM [2]; [5]): slightly increased
